Source: patent US4293553A, “1-Phthalazone derivatives, and use thereof” (Ishikawa; Masayuki, priority 1978, dated 1981)

Test: Acute toxicity, LD50 in mice (Litchfield and Wilcoxon)
Conditions: mouse, in vivo, po
Procedure: LD50 values were determined in mice and calculated according to the method of Litchfield and Wilcoxon described in J. Pharmacol. Exp. Ther., 96, 99 (1949).

Row | SMILES | LD50 [mg/kg]
1 | CCOC(=O)c1c(C)cc2cnn(-c3ccccc3Cl)c(=O)c2c1C [7-ethoxycarbonyl-6,8-dimethyl-2-(o-chlorophenyl)-1-phthalazone] | 386
2 | CCOC(=O)c1c(C)cc2c(CO)nn(-c3ccccc3Cl)c(=O)c2c1C [7-ethoxycarbonyl-6,8-dimethyl-2-(o-chlorophenyl)-4-hydroxymethyl-1-phthalazone] | 564
3 | CCOC(=O)c1c(C)cc2cnn(-c3ccccc3F)c(=O)c2c1C [7-ethoxycarbonyl-6,8-dimethyl-2-(o-fluorophenyl)-1-phthalazone] | 450
4 | CCOC(=O)c1c(C)cc2cnn(-c3ccccc3)c(=O)c2c1C [7-ethoxycarbonyl-6,8-dimethyl-2-phenyl-1-phthalazone] | 480
5 | CCOC(=O)c1c(C)cc2c(CO)nn(-c3ccccc3)c(=O)c2c1C [7-ethoxycarbonyl-6,8-dimethyl-4-hydroxymethyl-2-phenyl-1-phthalazone] | 540
